Results published in patent US12479841B2, “Anthelmintic compounds comprising azaindoles structure” (Intervet Inc., priority 2019, dated 2025).

How the values were obtained:
[1] = molecular target: Caenorhabditis elegans slo-1a (Caenorhabditis elegans, UniProt Q95V25)
Method: In Vitro Assay: Agonistic Activity at C. elegans Slo-1a
A CHO K1 cell line stably transfected with the Caenorhabditis elegans slo-1a (accession no Y51A2D.19a) was established. Cells were seeded in microtiter plates (black 384-well MTP, clear bottom) in a concentration of 10,000 cells/well in 25 μl medium and cultured for 20 to 24 hours at 37° C. and 5% CO2. The cell medium was removed, and the cells washed with Tyrode's solution. 25 μl of FMP-dye Blue-Tyrode's was added to each well and incubated at room temperature for 30 min.
(§1) For the membrane potential measurements, the prepared cell plate and substance plate were placed in the FLIPR Tetra (Molecular Devices). The baseline measurement of the fluorescence was stared for 20 sec (Exc. 510-545 nm, Emm. 565-625 nm). The cells were depolarized by addition of 25 μl of the diluted test compounds (final assay concentration of the KCl-Tyrode: 70 mM KCl, 2 mM CaCl2, 1 mM MgCl2, 0.8 mM NaH2PO4, 5 mM Glucose, 28 mM Hepes, pH 7.4, including the voltage sensitive dye). The complete measurement takes 150 s.
(§2) EC50 values were determined in triplicate utilizing compound dilution series. The data were determined at least in two independent tests. The data were proceeded by using the ActivityBase XE Runner software (IDBS) for curve fitting and calculation of the half-maximal effective concentration.

[2] = molecular target: human Maxi K channel (BK channel), KCNMA1 (KCa1.1) and beta1 (KCNMB1) subunits (Homo sapiens, UniProt Q12791)
Method: In Vitro Assay: Agonistic Activity at the Human Maxi K Channel (BK Channel)
A CHO K1 cell line was stably transfected with the KCNMA1 (KCa1.1, U11058) and beta1 (KCNMB1) subunits of the human Maxi K channel (Ponte et al, Molecular Pharmacology 2012, 81(4), 567-577).
Cells were seeded in microtiter plates (black 384-well MTP, clear bottom) in a concentration of 10,000 cells/well in 25 μl medium and cultured for 20 to 24 hours at 37° C. and 5% CO2. The cell medium was removed, and the cells washed with Tyrode's solution. 25 μl of FMP-dye Blue-Tyrode's was added to each well and incubated at room temperature for 30 min.
as §1, §2

[3] = system: Oesophagostomum dentatum (nodular worm of swine), larval stage 4; assay: In vitro assay: Oesophagostomum dentatum L4 larvae, minimum effective concentration; conditions: in Sus scrofa, read-out: MEC (minimum effective concentration) against Oesophagostomum dentatum L4, L4 larvae, 20 per well, microscopic examination, concentration at which at least one larva shows mortality, change in motility or development
From the text: (§3) In Vitro Assay: Ascaridia galli and Oesophagostomum dentatum
(§4) Ascaridia galli (intestinal roundworm of chicken), larval stage 3 (“L3”); and Oesophagostomum dentatum (nodular worm of swine), larval stages 3 and 4 (respectively “L3” and “L4”) where suspended in a nutrient medium and distributed to 96 well plates with 20 larvae per well. The wells were spiked with DMSO solutions of the compounds with declining concentration.

D. immitis microfilaria = assay: In vitro assay: Dirofilaria immitis L1 (microfilaria) motility; format: cell-based; conditions: 72 h, read-out: EC50 value, Dirofilaria immitis L1, approximately 500 microfilaria, 3 days incubation, reduction in motility vs DMSO, duplicates
A. viteae microfilaria = assay: In vitro assay: Acanthocheilonema viteae L1 (microfilaria) motility; conditions: 72 h, read-out: EC50 value, Acanthocheilonema viteae L1, approximately 500 microfilaria, 3 days incubation, reduction in motility vs DMSO, duplicates
Method: In Vitro Assay: Acanthocheilonema viteae L1
Approximately 500 A. viteae microfilaria were added to a microtiter plate containing a nutrient medium and the test compound in DMSO at varying concentrations. After incubation for 3 days, activity was evaluated as reduction in motility as compared to DMSO as negative control. Compounds were tested in duplicates. Based on the concentration response curves EC50 values were calculated.

[4] = system: Oesophagostomum dentatum (nodular worm of swine), larval stage 3; assay: In vitro assay: Oesophagostomum dentatum L3 larvae, minimum effective concentration; conditions: in Sus scrofa, read-out: MEC (minimum effective concentration) against Oesophagostomum dentatum L3, L3 larvae, 20 per well, microscopic examination, concentration at which at least one larva shows mortality, change in motility or development
From the text: as §3, §4

human Maxi K channel (BK channel), KCNMA1 (KCa1.1) and beta1 (KCNMB1) subunits, sequence (Q12791 1-1178 isoform Q12791-5): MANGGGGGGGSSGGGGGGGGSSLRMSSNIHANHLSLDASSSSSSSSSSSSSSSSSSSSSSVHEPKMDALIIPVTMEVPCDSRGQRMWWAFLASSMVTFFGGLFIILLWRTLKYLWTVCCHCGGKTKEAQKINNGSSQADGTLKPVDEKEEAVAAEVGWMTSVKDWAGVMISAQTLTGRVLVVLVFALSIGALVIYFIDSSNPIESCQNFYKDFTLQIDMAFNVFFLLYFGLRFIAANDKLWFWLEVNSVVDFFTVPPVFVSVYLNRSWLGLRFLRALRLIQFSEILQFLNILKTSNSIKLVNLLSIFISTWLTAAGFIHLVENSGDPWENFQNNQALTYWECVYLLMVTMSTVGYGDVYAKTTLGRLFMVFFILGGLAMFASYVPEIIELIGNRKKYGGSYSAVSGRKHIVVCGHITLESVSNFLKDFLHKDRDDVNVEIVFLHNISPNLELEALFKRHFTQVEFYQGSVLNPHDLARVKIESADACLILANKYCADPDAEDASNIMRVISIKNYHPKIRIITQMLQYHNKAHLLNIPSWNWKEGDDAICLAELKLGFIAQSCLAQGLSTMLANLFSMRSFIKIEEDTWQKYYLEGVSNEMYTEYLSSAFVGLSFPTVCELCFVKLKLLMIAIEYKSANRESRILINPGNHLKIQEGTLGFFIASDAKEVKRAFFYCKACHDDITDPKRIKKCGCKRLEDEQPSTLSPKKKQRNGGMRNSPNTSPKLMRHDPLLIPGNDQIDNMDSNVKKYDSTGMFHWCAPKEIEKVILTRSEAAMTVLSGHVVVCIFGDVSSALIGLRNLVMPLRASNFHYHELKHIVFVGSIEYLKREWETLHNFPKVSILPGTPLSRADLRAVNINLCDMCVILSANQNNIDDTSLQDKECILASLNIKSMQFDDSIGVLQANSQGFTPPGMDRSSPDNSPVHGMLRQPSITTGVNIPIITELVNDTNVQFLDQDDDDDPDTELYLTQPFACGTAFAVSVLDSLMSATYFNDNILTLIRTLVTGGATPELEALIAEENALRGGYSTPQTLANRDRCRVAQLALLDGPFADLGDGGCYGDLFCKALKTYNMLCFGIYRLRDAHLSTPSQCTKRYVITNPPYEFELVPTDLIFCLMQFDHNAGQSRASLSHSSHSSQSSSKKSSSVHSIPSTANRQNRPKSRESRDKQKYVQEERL
human Maxi K channel (BK channel), KCNMA1 (KCa1.1) and beta1 (KCNMB1) subunits, sequence (Q16558 whole entry partner): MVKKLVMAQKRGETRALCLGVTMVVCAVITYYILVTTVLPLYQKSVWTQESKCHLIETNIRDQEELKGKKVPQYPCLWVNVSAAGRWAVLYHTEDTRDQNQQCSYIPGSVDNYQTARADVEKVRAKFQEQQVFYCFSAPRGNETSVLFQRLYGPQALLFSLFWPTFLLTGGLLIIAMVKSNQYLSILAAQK
Caenorhabditis elegans slo-1a, sequence (Q95V25 whole entry): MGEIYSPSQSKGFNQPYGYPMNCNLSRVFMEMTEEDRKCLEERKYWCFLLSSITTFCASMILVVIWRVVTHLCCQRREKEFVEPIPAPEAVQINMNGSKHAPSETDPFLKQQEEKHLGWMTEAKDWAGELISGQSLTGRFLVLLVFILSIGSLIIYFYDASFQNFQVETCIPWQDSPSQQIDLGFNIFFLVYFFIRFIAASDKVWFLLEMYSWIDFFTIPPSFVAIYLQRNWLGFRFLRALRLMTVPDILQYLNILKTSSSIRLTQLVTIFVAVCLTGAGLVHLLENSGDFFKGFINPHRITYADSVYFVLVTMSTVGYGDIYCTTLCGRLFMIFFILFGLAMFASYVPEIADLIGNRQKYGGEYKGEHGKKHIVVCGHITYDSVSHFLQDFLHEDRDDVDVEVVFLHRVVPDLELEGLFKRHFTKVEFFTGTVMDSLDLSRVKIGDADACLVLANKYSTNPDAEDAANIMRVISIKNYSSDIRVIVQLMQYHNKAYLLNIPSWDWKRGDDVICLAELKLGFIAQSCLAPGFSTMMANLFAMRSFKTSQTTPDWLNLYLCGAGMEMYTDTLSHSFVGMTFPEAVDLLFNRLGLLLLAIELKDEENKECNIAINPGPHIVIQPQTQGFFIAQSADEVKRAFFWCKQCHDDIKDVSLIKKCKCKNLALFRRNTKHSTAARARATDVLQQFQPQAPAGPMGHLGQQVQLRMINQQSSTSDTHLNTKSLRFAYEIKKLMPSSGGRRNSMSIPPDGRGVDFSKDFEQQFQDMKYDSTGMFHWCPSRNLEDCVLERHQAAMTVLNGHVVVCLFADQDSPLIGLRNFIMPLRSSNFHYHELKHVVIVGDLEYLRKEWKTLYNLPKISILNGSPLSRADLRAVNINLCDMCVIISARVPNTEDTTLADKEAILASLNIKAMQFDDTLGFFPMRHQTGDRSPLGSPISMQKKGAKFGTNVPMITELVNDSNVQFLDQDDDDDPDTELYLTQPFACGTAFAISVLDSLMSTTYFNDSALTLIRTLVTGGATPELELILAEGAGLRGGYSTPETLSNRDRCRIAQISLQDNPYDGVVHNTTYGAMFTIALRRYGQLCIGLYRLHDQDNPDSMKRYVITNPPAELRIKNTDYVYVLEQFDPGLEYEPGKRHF

| Compound | EC50 [1] [µM] | EC50 [2] [µM] | further results |
| --- | --- | --- | --- |
| O=C(N[C@H]1CCCc2ccccc21)c1cnc2c(ccn2-c2cccc(Cl)c2Cl)c1N1CCOCC1 [Compound 17] | < 1 | 10 to 30 |  |
| COc1c(C(=O)N[C@H]2CCc3ccccc32)cnc2c1ccn2-c1cc(Cl)cc(Cl)c1 [Compound 49] |  | > 30 |  |
| CCOc1c(C(=O)N[C@H]2CCOc3ccccc32)cnc2c1ccn2-c1cc(Cl)cc(Cl)c1 [Compound 43] |  | > 30 | minimal effective concentration [3]: ≤ 50 µM; EC50 (D. immitis microfilaria): < 10 µM |
| O=C(N[C@H]1CCc2ccccc21)c1cnc2c(ccn2-c2cccc(Cl)c2Cl)c1N1CCOCC1 [Compound 22] |  | > 30 |  |
| CC1(C)CC(NC(=O)c2cnc3c(ccn3-c3cc(Cl)cc(Cl)c3)c2N2CCOCC2)c2ccccc2O1 (centres unmarked) [Compound 39] |  | > 30 | EC50 (A. viteae microfilaria): < 10 µM; minimal effective concentration [4]: ≤ 50 µM; minimal effective concentration [3]: ≤ 50 µM |
| CN(C)c1c(C(=O)N[C@H]2CCOc3ccccc32)cnc2c1ccn2-c1cccc(Cl)c1Cl [Compound 13] | < 1 | > 30 |  |
| CN(C)c1c(C(=O)Nc2cccc3ccccc23)cnc2c1ccn2-c1cccc(Cl)c1Cl [Compound 20] |  | > 30 | EC50 (A. viteae microfilaria): < 10 µM; minimal effective concentration [4]: ≤ 50 µM |
| CN(C)c1c(C(=O)N[C@@H]2CCc3ccccc32)cnc2c1ccn2-c1cccc(Cl)c1Cl [Compound 15] |  | > 30 | EC50 (D. immitis microfilaria): < 10 µM |
| O=C(N[C@H]1CCOc2ccccc21)c1cnc2c(ccn2-c2cccc(Cl)c2Cl)c1N1CCOCC1 [Compound 21] | < 1 | > 30 |  |
| CN(C)c1c(C(=O)NCc2ccccc2)cnc2c1ccn2-c1cc(Cl)cc(Cl)c1 [Compound 9] |  | > 30 |  |
| COc1c(C(=O)N[C@H]2CCOc3ccccc32)cnc2c1ccn2-c1cc(Cl)cc(Cl)c1 [Compound 47] |  | > 30 |  |
| CN(C)c1c(C(=O)N[C@H]2CCOc3ccccc32)cnc2c1ccn2-c1cc(Cl)cc(Cl)c1 [Compound 32] |  | > 30 |  |
| CN(C)c1c(C(=O)NCc2ccccc2)cnc2c1ccn2-c1cccc(Cl)c1Cl [Compound 10] | < 1 | > 30 |  |
| CN(C)c1c(C(=O)NC2CC(C)(C)Oc3ccccc32)cnc2c1ccn2-c1cc(Cl)cc(Cl)c1 (centres unmarked) [Compound 38] | < 10 | 10 to 30 | EC50 (A. viteae microfilaria): < 10 µM; minimal effective concentration [4]: ≤ 50 µM |
| O=C(NC1CCc2ccccc21)c1cnc2c(ccn2-c2cc(Cl)cc(Cl)c2)c1N1CCOCC1 (centres unmarked) [Compound 3] |  | > 30 |  |
| CN(C)c1c(C(=O)N[C@H]2CCc3ccccc32)cnc2c1ccn2-c1cccc(Cl)c1Cl [Compound 16] | < 1 | > 30 |  |
| CCOc1c(C(=O)Nc2cccc3ccccc23)cnc2c1ccn2-c1cc(Cl)cc(Cl)c1 [Compound 46] |  | > 30 |  |
| O=C(NC1CCOc2ccccc21)c1cnc2c(ccn2-c2cc(Cl)cc(Cl)c2)c1N1CCOCC1 (centres unmarked) [Compound 7] |  | > 30 |  |
| CN(C)c1c(C(=O)NC2CCOc3ccccc32)cnc2c1ccn2-c1cccc(Cl)c1Cl (centres unmarked) [Compound 6] | < 1 | > 30 |  |
| O=C(NC1CCc2ccccc21)c1cnc2c(ccn2-c2cccc(Cl)c2Cl)c1N1CCOCC1 (centres unmarked) [Compound 4] | < 1 | > 30 |  |
| CN(C)c1cccc(-n2ccc3c(N(C)C)c(C(=O)N[C@H]4CCOc5ccccc54)cnc32)c1 [Compound 30] | < 1 | > 30 | minimal effective concentration [4]: ≤ 50 µM |
| O=C(N[C@H]1CCCc2ccccc21)c1cnc2c(ccn2-c2cc(Cl)cc(Cl)c2)c1N1CCOCC1 [Compound 35] |  | > 30 |  |
| CN(C)c1c(C(=O)N[C@H]2CCOc3ccccc32)cnc2c1ccn2-c1cccc(C(F)(F)F)c1 [Compound 28] | < 1 | > 30 |  |
| COc1c(C(=O)N[C@H]2CCCc3ccccc32)cnc2c1ccn2-c1cc(Cl)cc(Cl)c1 [Compound 48] |  | > 30 | EC50 (A. viteae microfilaria): < 10 µM; minimal effective concentration [4]: ≤ 50 µM |
